Consider nine molecules from article PMC3096782 (Journal of medicinal chemistry, 2011).

Entries after “also recorded” stand apart in the source; their conditions may differ.

The target in experiment [1] is human NK1 receptor (Homo sapiens, UniProt P25103). In kind it is cell-based. Conditions: shift of the dose-response curve of SP, aequorin luminescence, CHO-NK1 cells.
For experiment [2] the following is noted: acute pain models; chronic trials; cited from earlier work.
For experiment [3] the following is noted: cited from earlier work.

Chain of human NK1 receptor (P25103 whole entry): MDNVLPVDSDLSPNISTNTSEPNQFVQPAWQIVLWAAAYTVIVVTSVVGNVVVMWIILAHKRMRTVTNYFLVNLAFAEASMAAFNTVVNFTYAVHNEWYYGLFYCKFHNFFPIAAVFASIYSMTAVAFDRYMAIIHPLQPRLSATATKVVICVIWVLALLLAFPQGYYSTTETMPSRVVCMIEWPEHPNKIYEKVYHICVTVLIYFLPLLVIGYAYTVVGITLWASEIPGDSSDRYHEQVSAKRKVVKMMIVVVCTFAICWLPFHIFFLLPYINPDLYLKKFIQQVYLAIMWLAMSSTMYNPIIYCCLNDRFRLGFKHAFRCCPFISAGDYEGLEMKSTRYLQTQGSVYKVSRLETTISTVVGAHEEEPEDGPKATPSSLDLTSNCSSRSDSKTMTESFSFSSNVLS

Turning to `CC(=O)N[C@H]1Cc2c([nH]c3ccccc23)CN(CC(=O)N(C)Cc2cc(C(F)(F)F)cc(C(F)(F)F)c2)C1=O` [28a], in experiment [1], the “NK1R antagonism (in words)” value is on record as “did not show any antagonist properties”.
Same read-out and setting: to `CC(=O)N1Cc2[nH]c3ccccc3c2C[C@H]1C(=O)N(C)Cc1cc(C(F)(F)F)cc(C(F)(F)F)c1` [32a] belongs “did not show any antagonist properties”; to `CC(=O)N[C@H]1Cc2ccccc2CN(CC(=O)NCc2cc(C(F)(F)F)cc(C(F)(F)F)c2)C1=O` [compound 19, Ac-(S)-Aba-Gly-NH-3′,5′-(CF3)2-Bn], “able to counteract the effect of SP; also recorded: moderate”.
As to `CC(=O)N[C@H]1Cc2ccccc2CN(CC(=O)N(C)Cc2cc(C(F)(F)F)cc(C(F)(F)F)c2)C1=O` [compound 20, Ac-(S)-Aba-Gly-NMe-3′,5′-(CF3)2-Bn], the “NK1R antagonism (in words)” value in experiment [1] is “able to counteract the effect of SP and good”.
On to `CC(=O)N1Cc2ccccc2C[C@H]1C(=O)NCc1cc(C(F)(F)F)cc(C(F)(F)F)c1` [compound 22], for which the “NK1R antagonism (in words)” value in experiment [1] is given as “lack of antagonism”.
Turning to `CC(=O)N1Cc2ccccc2C[C@H]1C(=O)N(C)Cc1cc(C(F)(F)F)cc(C(F)(F)F)c1` [compound 23, Ac-Tic-NMe-3′,5′-(CF3)2-Bn], the “NK1R antagonism (in words)” value in experiment [1] was “able to counteract the effect of SP and good”.
The same measure, in the same setting: then `CC(=O)N[C@H]1Cc2c([nH]c3ccccc23)CN(Cc2cc(C(F)(F)F)cc(C(F)(F)F)c2)C1=O` [compound 30], with “did not show any antagonist properties”.
Turning to “H-Tyr-D-Ala-Gly-Phe-Met-Pro-Leu-Trp-NH-3′,5′-Bn(CF3)2 [compound 6]”, in experiment [2], the “Antinociception and opioid-induced tolerance (in words)” value is “enhanced antinociception in acute pain models and prevention of opioid-induced tolerance in chronic trials”. The “Attenuation of neuropathic pain (in words)” value in experiment [3] is given as “potently attenuate neuropathic pain without producing opioid-induced tolerance”.
On to “H-Tyr-D-Ala-Gly-Phe-Met-Pro-Leu-Trp-O-3′,5′-Bn(CF3)2 [compound 7]”, for which, in experiment [2], the “Antinociception and opioid-induced tolerance (in words)” value was “enhanced antinociception in acute pain models and prevention of opioid-induced tolerance in chronic trials”. Also, the “Attenuation of neuropathic pain (in words)” value in experiment [3] was “potently attenuate neuropathic pain without producing opioid-induced tolerance”.
